Values quoted from earlier work, collected in patent US6475978B1, “Method of making water-softening and detergent compositions” (Unilever Home & Personal Care USA a division of Conopco, …, priority 1999, dated 2002).
Like-named read-outs stand apart in the source and are kept apart here.

Details: at 20° C.
[1] = materials with solubility of less than 50 g per 100 g water

Row | Structure (SMILES) | Water Solubility (materials with solubility of at least 50 g per 100 g water) [g/100 g] | Water Solubility [1] [g/100 g]
1 | NC(N)=O [Urea] | >100 | 
2 | O=P(O)(O)OP(=O)(O)OP(=O)(O)O [Sodium tripolyphosphate anhydrous] |  | 15
3 | O=BO[O-].[Na+] [Sodium perborate anhydrous] |  | 3.7
